Read-outs that look alike come from different tables or passages of the source.
Assays:
[1] = test system: Recombin ant provirus from the patient 7007984; assay: microbe, parasite or virus in culture; type: cell-based, HIV-1
Wild type pNL4-3 = assay: Antiviral activity (EC50), deCIPhR cell system, beta-galactosidase indicator cell readout; type: cell-based, HIV-1
[2] = test system: NNRTI (RTMDR) 5 resistant; assay: microbe, parasite or virus in culture; type: cell-based, HIV-1; details: Human immunodeficiency virus 1
[3] = Cytotoxicity, Alamar Blue Cell Viability Assay; details: deciphr cells
[4] = test system: Recombin ant provirus from the patient 6021959; assay: microbe, parasite or virus in culture; type: cell-based, HIV-1
NRTI (RTMC) resistant = assay: microbe, parasite or virus in culture; type: cell-based, HIV-1; details: Human immunodeficiency virus 1
Wild type # = assay: Antiviral activity (EC50) in CEMA and CEM-T4 cells; type: cell-based, HIV-1; details: Human immunodeficiency virus 1; wild type # marked a,b = CEMA and CEM-T4 cells
[5] = Human immunodeficiency virus 1, CEM-T4
[6] = recombinant provirus from patient 7007984, RT resistant mutations M41 L, K70R, A985, T215Y, read-out: EC50
[7] = HIV-1 wild type pNL4-3, cells per table title (deCIPhR, CEMA, CEM-T4), row has no cell mark, presumably deCIPhR, read-out: EC50
[8] = recombinant provirus from patient 6021959, RT resistance mutations M41 L, E44D, T69D, L741, K103N, V108I, V118I, M184V, M230L, T215Y, G333E, read-out: EC50

| Structure (SMILES) | EC50 ([1]; Human immunodeficiency virus 1) [nM] | EC50 (Wild type pNL4-3; [5]) [nM] | EC50 [2] [nM] | CC50 [3] [nM] | EC50 ([4]; Human immunodeficiency virus 1) [nM] | EC50 (NRTI (RTMC) resistant) [nM] | EC50 (Wild type #) [nM] | cytotoxicity (CD50) (deCIPhR™ cell system) | EC50 [1, 6] [nM] | EC50 (Wild type pNL4-3; [7]) [nM] | EC50 [4, 8] [nM] |
| --- | --- | --- | --- | --- | --- | --- | --- | --- | --- | --- | --- |
| Cc1cn([C@H]2C[C@H](F)[C@@H](COC(=O)CCCCCCCCCCCN=[N+]=[N-])O2)c(=O)[nH]c1=S [WA- 2 0, 1-(5-O-(12-azidododecanoyl)-2,3-dideoxy-3-fluoro-b-D-ribofuranosyl)-4-thi othymine] | 2880 | 822 | 100 | > 200000 | 4640 | ≤ 100000 | 450 | not toxic | – | – | – |
| COCCCCCCCCCCCC(=O)OC[C@H]1O[C@@H](n2cc(C)c(=S)[nH]c2=O)C[C@@H]1F [WA2 1, 1-(2,3-dideoxy-3-fluoro-5-O-(12-methoxydodecanoyl)-b-D-ribofuranosyl)-4-thiothymine] | 3150 | 269 | 550 | > 200000 | 9260 | 180 | 330 | not toxic | – | – | – |
| Cc1cn([C@H]2C[C@H](F)[C@@H](COC(=O)CCCCCCCCCCCBr)O2)c(=O)[nH]c1=S [WA- 19, 1-(5-O-(12-bromododecanoyl)-2.3-dideoxy-3-fluoro-b-D-ribofuranosyl)-4-th iothymine] | – | 710 | – | > 200000 | 10000 | – | – | not toxic | – | – | – |
| CCCCCCCCCCCCCC(=O)OC[C@H]1O[C@@H](n2cc(C)c(=S)[nH]c2=O)C[C@@H]1F [WA- 18, 1-(2,3-dideoxy-3-fluoro-5-O-(12-tetradodecanoyl)-b-D-ribofuranosyl)-4-thio thymine] | 2400 | 421 | 45 | > 200000 | 8340 | 150 | 130 | not toxic | – | – | – |
| CCSCCCCCCCCCCCC(=O)OC[C@H]1O[C@@H](n2cc(C)c(=S)[nH]c2=O)C[C@@H]1F [WA-2 2, 1-(2,3-dideoxy-5-O-(12-thioethyldodecanoyl)-3-fluoro-b-D-ribofuranosyl)-4-thiothymine] | 5920 | 998 | – | > 200000 | 10000 | 75 | 120 | not toxic | – | – | – |
| Cc1cn([C@H]2C[C@H](F)[C@@H](COP(=O)(O)O)O2)c(=O)[nH]c1=O [FLT MP, reference compound] | – | – | – | – | – | – | – | – | 18 | 10 | 30 |
| Cc1cn([C@H]2C[C@H](N=[N+]=[N-])[C@@H](COP(=O)(O)O)O2)c(=O)[nH]c1=O [AZTM P, reference compound] | – | – | – | – | – | – | – | – | 1030 | 63 | 1710 |
| CCSCCCCCCCCCCC(=O)OC[C@H]1O[C@@H](n2cc(C)c(=S)[nH]c2=O)C[C@@H]1F [WA-2 3, 1-(5-O-(2,3-dideoxy-11-thioethylundecanoyl)-3-fluoro-b-D-ribofuranosyl)-4-thiothymine] | – | 965 | 480 | > 200000 | 5520 | 450 | 450 | not toxic | – | – | – |

Source: patent EP2402356A2, “Modified 2',3'-dideoxynucleosides for treatment infections caused by human immunodeficiency virus (HIV) multidrug resistant strains, method of their synthesis and the pharmaceutical agent containing these nucleosides” (Instytut Biochemii I Biofizyki Pan, priority 2010, dated 2012)
